Data reported in US20240058318A1, “DEGRADING PKCB1 TO TREAT CANCER” (Mayo Foundation for Medical Education and Research, priority 2020, published 2024).
“And” between values parts separate entries of the source, which are not always exact repeats. Identical values can stand only once.

Assays:
[1] = test system: MDAMB231 cells; assay: Crystal violet (CV) proliferation assay, MDAMB231; assay type: cell-based; conditions: MDAMB231 (PKCß1 high, Rb positive), 2000 cells
Description: Cell proliferation rates were determined using crystal violet assays. […] Cells were fixed with 25% glutaraldehyde for 10 minutes with shaking, washed 5 times with distilled water, stained with a 1% crystal violet solution (solubilized in 25% methanol) for 10 minutes, washed again 5 times and allowed to dry. De-staining was performed using […] sodium citrate in 50% ethanol followed by quantification using a 96 well spectrophotometer set at an absorbance of 550 nm.

[2] = Pharmacokinetics in mice, plasma by UPLC-MS/MS; assay type: in vivo, female CD1 mice; conditions: for Concentration ENDX PROTAC 7: mouse plasma
Description: ENDX PROTAC 7 and PROTAC 9 pharmacokinetics were characterized in female CD1 mice. Blood samples were collected from mice anesthetized under isoflurane via retro-orbital eye bleed into tubes containing EDTA and immediately chilled on ice. NaF was added to the EDTA collection tubes to help stabilize the drug in whole blood for the second IV and IP studies with ENDX PROTAC 9, and for the IV and oral studies with PROTAC 7. Plasma and red blood cells were separated immediately by centrifugation in a refrigerated centrifuge at 4° C. The plasma was transferred to a separate tube and immediately frozen at −20° C.
For IV dosing, ENDX PROTAC 9 was dissolved in 10% DMSO, 10% PEG 400, and 80% normal saline for a final concentration of 0.2 mg/mL ENDX PROTAC 9 for the 1 mg/kg IV doses. ENDX PROAC 7 was dissolved in 15% DMSO, 9.44% PEG400, and […] normal saline for a final concentration of 0.19 mg/mL for the 1 mg/kg IV doses. Blood samples (3 mice per time-point) were collected 5 minutes, 15 minutes, 0.5 hour, 1 hour, 2 hours, 4 hours, 8 hours, and 24 hours after administration of the ENDX PROTAC. A second IV study was performed for ENDX PROTAC 9 in which blood samples (3 mice per time-point) were collected 5 minutes, 15 minutes, 1 hour, and 2 hours after administration of ENDX PROTAC 9. For oral dosing, ENDX PROTAC 9 (10 mg/kg) and ENDX PROTAC 7 (10 mg/kg) were suspended in 1 mM ascorbic acid:PEG400, 1:1 v/v for a final concentration of 1.0 mg/mL ENDX PROTAC. Blood samples (three mice per time-point) were collected 15 minutes, 0.5 hour, 1 hour, 2 hours, 4 hours, 6 hours, 8 hours, and 24 hours after administering the ENDX PROTAC. For LP. dosing, ENDX PROTAC 9 (4 mg/kg) was prepared in 1 mM ascorbic acid:PEG400, 1:1 v/v for a final concentration of 0.4 mg/mL ENDX PROTAC 9. Blood samples (three mice per time-point) were collected 15 minutes, 0.5 hour, 1 hour, 2 hours, 4 hours, 6 hours, 8 hours, and 24 hours after administration. Plasma concentrations of ENDX PROTAC 7 and 9 were measured using UPLC-MS/MS.

[3] = target: T1, PKCβ1 (Homo sapiens, UniProt P05771); assay: Western blot, PKCβ1 expression in MCF7AC1 cells; assay type: cell-based; conditions: 1 μM, within 72 hours, drugs replenished every 24 hours
T1 construct: western blots showing expression of PKCβ1 in MCF7AC1 cells treated with 1 μM concentration of the ENDX-PROTACs or ENDX; endogenous in cells; host or cells: MCF7AC1 (ER+ breast cancer cells)
T1 sequence (P05771 whole entry): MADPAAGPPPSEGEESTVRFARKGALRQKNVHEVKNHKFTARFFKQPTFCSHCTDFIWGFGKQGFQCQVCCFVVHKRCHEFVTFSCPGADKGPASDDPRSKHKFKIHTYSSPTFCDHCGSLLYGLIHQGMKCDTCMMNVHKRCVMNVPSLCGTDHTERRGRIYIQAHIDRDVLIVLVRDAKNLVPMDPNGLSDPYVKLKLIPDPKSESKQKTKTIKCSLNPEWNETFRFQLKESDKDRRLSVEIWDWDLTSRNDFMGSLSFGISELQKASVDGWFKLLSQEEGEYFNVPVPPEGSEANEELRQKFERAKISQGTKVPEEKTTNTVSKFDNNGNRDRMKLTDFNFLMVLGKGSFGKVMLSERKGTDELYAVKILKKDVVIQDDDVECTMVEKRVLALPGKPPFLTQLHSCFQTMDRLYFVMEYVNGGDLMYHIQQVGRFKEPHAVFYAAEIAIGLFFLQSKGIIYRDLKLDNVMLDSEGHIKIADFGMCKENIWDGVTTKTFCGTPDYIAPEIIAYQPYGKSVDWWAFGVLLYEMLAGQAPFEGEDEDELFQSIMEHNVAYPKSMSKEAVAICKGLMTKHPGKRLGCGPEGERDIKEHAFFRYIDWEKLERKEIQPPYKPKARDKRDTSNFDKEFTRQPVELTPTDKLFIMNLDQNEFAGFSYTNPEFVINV
Description: For western blotting analysis, cells were treated with vehicle (DMSO) or 1 μM of the indicated ENDX-PROTAC's or parent drug ENDX for 24, 48 and 72 hours with the drugs replenished every 24 hours. 25 μg of protein lysates were run on 10% Bis-Tris XT Criterion precast SDS-PAGE gels and transferred on to PVDF membrane. Following blocking with TB ST-5% milk, the membranes were probed with primary antibodies (1:500 — 1:2000 dilutions) for PKCβ1 (Abcam #136917), ERα (SC #8002), E2F1 (SC #251) and Actin (CS#8457) in TBST-5% BSA and secondary antibodies (1:2000 dilution) in TBST-5% milk. Membranes were developed using chemiluminescent WestPico or WestFemto detection solutions on the Li-Cor Imaging system.

[4] = test system: unfolded protein response (UPR) mRNAs; assay: qRT-PCR of UPR-associated mRNAs in MDAMB231 cells; assay type: cell-based; conditions: 1 μM, 0-48 hours, fold relative to DMSO
Description: To evaluate the effect of PROTAC 7 (Pr-7) on expression of various proapoptotic polypeptides, triple negative MDAMB231 cells were treated with DMSO, 1 μM Pr-7, or 1 μM ENDX, and mRNA levels were assessed by qRT-PCR at 0-, 1-, 8-, 24-, and 48-hour time points.
Triple negative breast cancer MDA-MB-231 cells were cultured in phenol-red free DMEM/F12 medium supplemented with 10% FBS and 1% AA. Cells were plated at 1×10^6 cells per 10 cm dish. The next day, the cells were treated with DMSO, 1 μM Pr-7 or 1 μM ENDX for 1, 8, 24, and 48 hours, and were then processed for RNA and RIPA protein analysis.
In particular, total RNA from tissue samples and cell lines was extracted using the RNEASY® Plus mini kit (Qiagen; Hilden, Germany), cDNA was generated using a ISCRIPT™ cDNA synthesis kit (Bio-Rad; Hercules, CA) and qRT-PCR reactions were set up using PERFECTA® SYBR™ green fast mix reagents (Quanta BioSciences; Beverly, MA) and gene-specific primer sets (IDT; Coralville, IA). The forward and reverse primer sequences for the genes used in this analysis were obtained from the Harvard PrimerBank database. Amplification of HPRT and tubulin was used as an internal control. Relative expression between samples was calculated by the comparative Ct method.

[5] = mice, oral 10 mg/kg, NaF in tubes

IC50 [1]: 87 nM
Concentration ENDX PROTAC 7 ([2]; IV (1 mg/kg), 120 minutes, listed as ENDX PROTAC 7, 1 mg/kg): 8.35 ng/mL and 9.53 ng/mL and 8.69 ng/mL
Concentration ENDX PROTAC 7 ([2]; PO (10 mg/kg), 15 minutes, listed as ENDX PROTAC 7, 10 mg/kg): 0.75 ng/mL and 0.7 ng/mL and 0.93 ng/mL
Concentration ENDX PROTAC 7 ([2]; PO (10 mg/kg), 30 minutes, listed as ENDX PROTAC 7, 10 mg/kg): 0.64 ng/mL and 0.81 ng/mL and 0.83 ng/mL
Concentration ENDX PROTAC 7 ([2]; PO (10 mg/kg), 360 minutes, listed as ENDX PROTAC 7, 10 mg/kg): 0.53 ng/mL and 0.4 ng/mL and 0.44 ng/mL
Concentration ENDX PROTAC 7 ([2]; PO (10 mg/kg), 480 minutes, listed as ENDX PROTAC 7, 10 mg/kg): 0.69 ng/mL and 0.37 ng/mL and 0.4 ng/mL
elimination half-life ([2]; mice, I.V. 1 mg/kg, NaF in tubes): 5 h
peak plasma concentration ([2]; mice, IV 1 mg/kg, NaF in tubes): 129.7 ng/mL
time of peak plasma concentration ([2]; mice, IV 1 mg/kg, NaF in tubes): ≤ 5 min
Oral bioavailability ([2]; mice, oral 10 mg/kg vs IV 1 mg/kg, NaF in tubes): 0.85%
peak plasma concentration [2, 5]: 1.24 ng/mL
time of peak plasma concentration [2, 5]: ≤ 60 min
PKCβ1 polypeptide degradation [3]: rapidly degraded PKCβ1 polypeptides
SMILES: CC/C(=C(\c1ccc(O)cc1)c1ccc(OCCN(C)C(=O)COCCNC(=O)Cc2ccc3c(c2)CN(C2CCC(=O)NC2=O)C3=O)cc1)c1ccccc1 (stereo not shown) [TC-Pr-007]
Concentration ENDX PROTAC 7 ([2]; IV (1 mg/kg), 15 minutes, listed as ENDX PROTAC 7, 1 mg/kg): 37.27 ng/mL and 57.95 ng/mL and 30.96 ng/mL
Concentration ENDX PROTAC 7 ([2]; IV (1 mg/kg), 30 minutes, listed as ENDX PROTAC 7, 1 mg/kg): 10.89 ng/mL and 19.85 ng/mL and 16.62 ng/mL
mRNA expression of UPR-associated genes [4]: increased mRNA expression for CHOP, MCL-1, PUMA, NOXA, and Xbp-1
